Results on 16 compounds are retold here after US7994185B2, “Benzene sulfonamide thiazole and oxazole compounds” (Glaxo Smith Kline LLC, priority 2008, dated 2011).

Like-named read-outs stand apart in the source and are kept apart here.

The subject of test [1] is Human melanoma cancer cells (SK-MEL-28). Description: Cell growth inhibition assay (CellTiter-Glo), SK-MEL-28. Format: cell-based.
In test [2] the target is T1, BRAFV600E full-length (amino acids 2-766) (Homo sapiens, UniProt P15056, V600E).
T1 construct: His6-tagged BRAFV600E full-length (amino acids 2-766); His6; made in house; host or cells: baculovirus expression system (insect cells)
T1 sequence (P15056 2-766 V600E): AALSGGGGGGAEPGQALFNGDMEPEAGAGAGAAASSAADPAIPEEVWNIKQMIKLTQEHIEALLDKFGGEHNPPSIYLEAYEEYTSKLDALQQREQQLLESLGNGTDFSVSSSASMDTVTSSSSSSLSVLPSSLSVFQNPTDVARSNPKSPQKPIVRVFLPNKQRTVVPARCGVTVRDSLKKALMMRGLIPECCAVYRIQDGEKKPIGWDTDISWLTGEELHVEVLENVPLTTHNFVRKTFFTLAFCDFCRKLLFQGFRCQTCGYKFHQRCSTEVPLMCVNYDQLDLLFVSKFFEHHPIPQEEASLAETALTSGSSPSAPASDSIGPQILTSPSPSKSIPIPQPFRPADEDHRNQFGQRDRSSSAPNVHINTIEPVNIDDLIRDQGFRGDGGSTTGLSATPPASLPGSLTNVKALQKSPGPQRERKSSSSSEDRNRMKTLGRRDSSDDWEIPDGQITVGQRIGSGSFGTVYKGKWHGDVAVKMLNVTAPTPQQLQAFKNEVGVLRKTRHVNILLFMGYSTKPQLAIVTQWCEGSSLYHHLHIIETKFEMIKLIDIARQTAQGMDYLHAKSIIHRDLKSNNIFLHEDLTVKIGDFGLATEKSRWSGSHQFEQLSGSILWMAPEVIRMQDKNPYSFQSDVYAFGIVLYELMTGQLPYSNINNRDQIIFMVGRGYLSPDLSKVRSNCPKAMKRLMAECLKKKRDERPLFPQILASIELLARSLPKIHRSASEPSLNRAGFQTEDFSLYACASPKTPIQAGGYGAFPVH
As to the kind of experiment: B-Raf Accelerated MEK ATPase assay (BRAMA). Format: biochemical. Conditions: categorized. On the procedure: Compounds of the present invention were tested for B-Raf protein serine kinase inhibitory activity in a B-Raf Accelerated MEK ATPase assay (BRAMA). […] The BRAMA assay is a high sensitivity assay which measures an intrinsic MEK-mediated ATP hydrolysis uncoupled from downstream ERK phosphorylation by coupling the formation of ADP to NADH oxidation through the enzymes pyruvate kinase and lactate dehydrogenase. When ADP production is initiated by addition of catalytic amounts of an activated Raf enzyme and non-phosphorylated MEK, one observes robust ADP production concomitant with Raf-mediated phosphorylation of MEK. The method is disclosed in: C. Rominger, M. Schaber, E. May. Assay for B-Raf Activity Based on Intrinsic MEK ATPase Activity.

Test [3] relates to Human colon tumor cells (Colo205). As to the kind of experiment: Cell growth inhibition assay (CellTiter-Glo), Colo205. Format: cell-based. On the procedure: Human colon tumor cells (Colo205) were cultured in RPMI (Mediatech 50-020-PB) containing 10% FBS and 1% penicillin-streptomycin.
The next day, compounds were diluted as follow: For 96-well assays, 13.5 μL of compound in DMSO were diluted using nine (9) serial 1:3 dilutions of 4.5 μL in 9 μL of DMSO. Medium (270 μL/well of RPMI with 10% FBS and 1% penicillin-streptomycin) was added to the plates. Aliquots (7 μL) were added to cells in the final assay giving a final DMSO concentration of 0.2%. For 384-well assays, 15 μL of compound in DMSO were diluted using nine (9) serial 1:3 dilutions of 5 μL in 10 μL of DMSO, followed by a further dilution of 5 μL of compound with 95 μL of medium, of which 2 μL were added to cells in the final assay giving a final DMSO concentration of 0.2%. Cells were incubated at 37° C., 5% CO2 for 3 days.
Total ATP was measured (as a surrogate estimate of cell number) using CellTiter-Glo® reagent (Promega G7571). Briefly, plates were removed from the incubator and allowed to equilibrate to room temperature for 30 minutes. CellTiter-Glo® (25 μL or 55 μL for 384-well or 96-well assays, respectively) reagent was added to each well and plates were shaken on an orbital plate shaker for 2 minutes. Plates were incubated without shaking for a further 30 minutes and read on an LJL Analyst GT reader in luminometer mode with an integration time of 0.5 seconds per well. Percent inhibition of cell growth was calculated relative to DMSO vehicle-treated control wells.
In general terms: In ATP-based viability assays light output follows the ATP content of the culture.

Setting [4] is: SK-MEL-28, 72 h, Table 3a, 3 days incubation, read-out: Activity in SK-MEL-28 Tumor Cells.
[5] abbreviates: SK-MEL-28, Table 3b, later runs, average for the one or more runs, categorized, read-out: IC50 for SK-MEL-28.
Setting [6] is: B-Raf Activity, Table 1a, highest pIC50 for the one or more runs.
[7] abbreviates: B-Raf pIC50, Table 1b, later runs, average pIC50 for the one or more runs.
The mark [8] stands for this setting: COLO 205, 72 h, Table 2a, 3 days incubation, read-out: Activity in Colo205 Tumor Cells.
The mark [9] stands for this setting: COLO 205, Table 2b, later runs, average for the one or more runs, categorized, read-out: IC50 for Colo205.
The mark [10] stands for this setting: Table 1b, later runs, average pIC50 for the one or more runs, read-out: B-Raf pIC50 (converted).

Take `CC(C)(C)c1nc(-c2cccc(NS(=O)(=O)c3c(F)cccc3F)c2)c(-c2ccnc(NCCS(C)(=O)=O)n2)s1` [Example 2, N-{3-[2-(1,1-Dimethylethyl)-5-(2-{[2-(methylsulfonyl)ethyl]amino}-4-pyrimidinyl)-1,3-thiazol-4-yl]phenyl}-2,6-difluorobenzenesulfonamide]: the IC50 in test [1] (setting [4]) is under 0.1 µM; in test [1] (setting [5]), under 0.1 µM; in test [2] (setting [6]), under 0.1 µM; in test [2] (setting [7]) it was at most 0.00316 µM; in test [3] (setting [8]) it was under 0.1 µM; in test [3] (setting [9]), under 0.1 µM.

For the compound `CC(C)CNc1nccc(-c2sc(C(C)(C)C)nc2-c2cccc(NS(=O)(=O)c3cc(F)ccc3F)c2)n1` [Example 3, N-[3-(2-(1,1-Dimethylethyl)-5-{2-[(2-methylpropyl)amino]-4-pyrimidinyl}-1,3-thiazol-4-yl)phenyl]-2,5-difluorobenzenesulfonamide], the IC50 in test [1] (setting [4]) is under 0.1 µM; in test [1] (setting [5]) it was under 0.1 µM; in test [2] (setting [6]), under 0.1 µM; in test [2] (setting [10]), 0.00316 to 0.0316 µM; in test [3] (setting [8]) it was under 0.1 µM; in test [3] (setting [9]), under 0.1 µM.

In the case of `CCOCCNc1nccc(-c2sc(C(C)C)nc2-c2ccc(F)c(NS(=O)(=O)c3c(F)cccc3F)c2)n1` [Example 4, N-{5-[5-(2-{[2-(Ethyloxy)ethyl]amino}-4-pyrimidinyl)-2-(1-methylethyl)-1,3-thiazol-4-yl]-2-fluorophenyl}-2,6-difluorobenzenesulfonamide], the IC50 was 0.1 to 1 µM in test [1] (setting [4]); 0.1 to 1 µM in test [1] (setting [5]); under 0.1 µM in test [2] (setting [6]); 0.0316 to 1 µM in test [2] (setting [7]); 0.1 to 1 µM in test [3] (setting [8]); 1 to 10 µM in test [3] (setting [9]).

As to `CC(C)c1nc(-c2ccc(F)c(NS(=O)(=O)c3c(F)cccc3F)c2)c(-c2ccnc(NCC3CCCO3)n2)s1` (centres unmarked) [Example 5, 2,6-Difluoro-N-[2-fluoro-5-(2-(1-methylethyl)-5-{2-[(tetrahydro-2-furanylmethyl)amino]-4-pyrimidinyl}-1,3-thiazol-4-yl)phenyl]benzenesulfonamide], the IC50 in test [1] (setting [4]) fell in the range of 0.1 to 1 µM; in test [1] (setting [5]), 0.1 to 1 µM; in test [2] (setting [6]), 0.1 to 1 µM; in test [2] (setting [7]), 0.0316 to 1 µM; in test [3] (setting [8]) it was 0.1 to 1 µM; in test [3] (setting [9]) it was 1 to 10 µM.

For `CC(C)c1nc(-c2ccc(F)c(NS(=O)(=O)c3c(F)cccc3F)c2)c(-c2ccnc(NCC3CC3)n2)s1` [Example 6, N-{5-[5-{2-[(Cyclopropylmethyl)amino]-4-pyrimidinyl}-2-(1-methylethyl)-1,3-thiazol-4-yl]-2-fluorophenyl}-2,6-difluorobenzenesulfonamide], the IC50 in test [1] (setting [4]) was over 1 µM; in test [1] (setting [5]), 1 to 10 µM; in test [2] (setting [6]), under 0.1 µM; in test [2] (setting [7]) it was 0.0316 to 1 µM; in test [3] (setting [8]), over 1 µM; in test [3] (setting [9]), 1 to 10 µM.

As to `CC(C)c1nc(-c2ccc(F)c(NS(=O)(=O)c3c(F)cccc3F)c2)c(-c2ccnc(NCCCN3CCOCC3)n2)s1` [Example 7, 2,6-Difluoro-N-{2-fluoro-5-[2-(1-methylethyl)-5-(2-{[3-(4-morpholinyl)propyl]amino}-4-pyrimidinyl)-1,3-thiazol-4-yl]phenyl}benzenesulfonamide], the IC50 in test [1] (setting [4]) was over 1 µM; in test [1] (setting [5]), 1 to 10 µM; in test [2] (setting [6]), 0.1 to 1 µM; in test [2] (setting [7]), 0.0316 to 1 µM; in test [3] (setting [8]), over 1 µM; in test [3] (setting [9]), 1 to 10 µM.

In the case of `CCNc1nccc(-c2sc(C(C)C)nc2-c2ccc(F)c(NS(=O)(=O)c3c(F)cccc3F)c2)n1` [Example 9, N-{5-[5-[2-(Ethylamino)-4-pyrimidinyl]-2-(1-methylethyl)-1,3-thiazol-4-yl]-2-fluorophenyl}-2,6-difluorobenzenesulfonamide], the IC50 in test [1] (setting [4]) was over 1 µM; in test [1] (setting [5]), 1 to 10 µM; in test [2] (setting [6]), 0.1 to 1 µM; in test [2] (setting [7]), 0.0316 to 1 µM; in test [3] (setting [8]) it was over 1 µM; in test [3] (setting [9]), 1 to 10 µM.

Consider `CC(C)(C)c1nc(-c2cccc(NS(=O)(=O)c3c(F)cccc3F)c2F)c(-c2ccnc(NCCCS(C)(=O)=O)n2)s1` [Example 12, N-{3-[2-(1,1-Dimethylethyl)-5-(2-{[3-(methylsulfonyl)propyl]amino}-4-pyrimidinyl)-1,3-thiazol-4-yl]-2-fluorophenyl}-2,6-difluorobenzenesulfonamide], for which the IC50 is under 0.1 µM in test [1] (setting [4]); under 0.1 µM in test [1] (setting [5]); under 0.1 µM in test [2] (setting [6]); at most 0.00316 µM in test [2] (setting [7]); under 0.1 µM in test [3] (setting [8]); under 0.1 µM in test [3] (setting [9]).

Turning to `CC(C)(C)c1nc(-c2cccc(NS(=O)(=O)c3c(F)cccc3F)c2F)c(-c2ccnc(NC3CCS(=O)(=O)CC3)n2)s1` [Example 13, N-[3-(2-(1,1-Dimethylethyl)-5-{2-[(1,1-dioxidotetrahydro-2H-thiopyran-4-yl)amino]-4-pyrimidinyl}-1,3-thiazol-4-yl)-2-fluorophenyl]-2,6-difluorobenzenesulfonamide], the IC50 in test [1] (setting [4]) is under 0.1 µM; in test [1] (setting [5]), under 0.1 µM; in test [2] (setting [6]) it was under 0.1 µM; in test [2] (setting [7]), at most 0.00316 µM; in test [3] (setting [8]) it was under 0.1 µM; in test [3] (setting [9]), under 0.1 µM.

As for `CS(=O)(=O)CCNc1nccc(-c2sc(N3CCOCC3)nc2-c2cccc(NS(=O)(=O)c3c(F)cccc3F)c2F)n1` [Example 14, 2,6-Difluoro-N-{2-fluoro-3-[5-(2-{[2-(methylsulfonyl)ethyl]amino}-4-pyrimidinyl)-2-(4-morpholinyl)-1,3-thiazol-4-yl]phenyl}benzenesulfonamide], the IC50 is under 0.1 µM in test [1] (setting [4]); under 0.1 µM in test [1] (setting [5]); under 0.1 µM in test [2] (setting [6]); at most 0.00316 µM in test [2] (setting [7]); under 0.1 µM in test [3] (setting [8]); under 0.1 µM in test [3] (setting [9]).

`CS(=O)(=O)CCCNc1nccc(-c2sc(N3CCOCC3)nc2-c2cccc(NS(=O)(=O)c3c(F)cccc3F)c2F)n1` [Example 15, 2,6-Difluoro-N-{2-fluoro-3-[5-(2-{[3-(methylsulfonyl)propyl]amino}-4-pyrimidinyl)-2-(4-morpholinyl)-1,3-thiazol-4-yl]phenyl}benzenesulfonamide]: the IC50 in test [1] (setting [4]) is under 0.1 µM; in test [1] (setting [5]), under 0.1 µM; in test [2] (setting [6]) it was under 0.1 µM; in test [2] (setting [7]) it was at most 0.00316 µM; in test [3] (setting [8]), under 0.1 µM; in test [3] (setting [9]), under 0.1 µM.

`CN(C)c1nc(-c2cccc(NS(=O)(=O)c3c(F)cccc3F)c2)c(-c2ccnc(N)n2)s1` [Example 112, N-{3-[5-(2-Amino-4-pyrimidinyl)-2-(dimethylamino)-1,3-thiazol-4-yl]phenyl}-2,6-difluorobenzenesulfonamide]: the figures for the IC50 in test [2] (setting [6]), in test [2] (setting [7]) and in test [3] (setting [9]) were 0.1 to 1 µM, 0.0316 to 1 µM and 1 to 10 µM, respectively.

Consider `Nc1nccc(-c2sc(C3CCOCC3)nc2-c2cccc(NS(=O)(=O)c3ccoc3)c2Cl)n1` [Example 265, N-{3-[5-(2-amino-4-pyrimidinyl)-2-(tetrahydro-2H-pyran-4-yl)-1,3-thiazol-4-yl]-2-chlorophenyl}-3-furansulfonamide], for which the IC50 was under 0.1 µM in test [1] (setting [5]) and at most 0.00316 µM in test [2] (setting [7]).

In test [2] (setting [7]), `Nc1nccc(-c2sc(C3CCNCC3)nc2-c2cccc(NS(=O)(=O)c3c(F)cccc3F)c2F)n1` [Example 322, N-{3-[5-(2-amino-4-pyrimidinyl)-2-(4-piperidinyl)-1,3-thiazol-4-yl]-2-fluorophenyl}-2,6-difluorobenzenesulfonamide] displayed an IC50 of at most 0.00316 µM.

Consider `Cc1nccc(-c2sc(C3CCNCC3)nc2-c2cccc(NS(=O)(=O)c3ccoc3)c2F)n1` [Example 323, N-{2-fluoro-3-[5-(2-methyl-4-pyrimidinyl)-2-(4-piperidinyl)-1,3-thiazol-4-yl]phenyl}-3-furansulfonamide], for which, in test [2] (setting [10]), the IC50 is 0.00316 to 0.0316 µM.

As to `Nc1nccc(-c2sc(C3CCNCC3)nc2-c2cccc(NS(=O)(=O)c3ccoc3)c2F)n1` [Example 324, N-{3-[5-(2-amino-4-pyrimidinyl)-2-(4-piperidinyl)-1,3-thiazol-4-yl]-2-fluorophenyl}-3-furansulfonamide], the IC50 in test [2] (setting [7]) is at most 0.00316 µM.
